Molecular target: T1, cholesteryl ester transfer protein (CETP) from human lipoprotein-deprived serum (LPDS) (Homo sapiens, UniProt P11597)
T1 construct: the source of CETP was human lipoprotein-deprived serum (LPDS); from tissue; host or cells: human lipoprotein-deprived serum (LPDS)
T1 sequence (P11597 18-493): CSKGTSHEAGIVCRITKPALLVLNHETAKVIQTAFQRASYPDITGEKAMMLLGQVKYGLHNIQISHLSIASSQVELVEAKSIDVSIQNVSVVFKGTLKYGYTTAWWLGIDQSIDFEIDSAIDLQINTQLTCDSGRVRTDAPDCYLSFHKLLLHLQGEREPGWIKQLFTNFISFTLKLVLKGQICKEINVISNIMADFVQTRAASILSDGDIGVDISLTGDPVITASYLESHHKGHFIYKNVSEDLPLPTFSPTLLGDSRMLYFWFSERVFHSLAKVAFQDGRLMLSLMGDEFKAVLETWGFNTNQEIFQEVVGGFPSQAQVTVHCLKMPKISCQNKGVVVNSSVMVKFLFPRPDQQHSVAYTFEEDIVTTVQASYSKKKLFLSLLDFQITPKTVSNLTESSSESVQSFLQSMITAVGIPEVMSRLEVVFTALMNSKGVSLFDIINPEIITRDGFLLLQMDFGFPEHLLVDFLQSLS
Test: CETP inhibition in the presence of plasma (SPA assay, CETP source human lipoprotein-deprived serum)
Type: biochemical
Procedure: Activity of CETP inhibitors was determined using a buffer assay system. Partially purified CETP transferred radiolabeled cholesteryl ester from HDL donor particles to biotin-labeled LDL acceptor particles. The reaction was stopped by addition of streptavidin-coupled scintillation proximity assay (SPA) beads. These beads captured the biotinylated acceptor particles and transferred radioactivity was measured. The assay system was purchased and performed according to manufacturer's recommendations (Amersham Biosciences). Inhibitory activity of compounds was determined as percentage of positive control activity containing CETP together with donor and acceptor particles. Serial dilution of compounds was performed in order to determine the IC50 values.
Activity of the compounds was subsequently measured in the presence of plasma using the same assay as described above except that the source of CETP was human lipoprotein-deprived serum (LPDS). Inhibitory activity of compounds was determined as percentage of positive control activity containing all the assay components except compound. Serial dilution of compounds was performed in order to determine the IC50 values.

Row | Structure (SMILES) | IC50 [µM]
1 | CC(C)(C)c1ccc(CN(CCc2cccc(C(F)(F)F)c2)C(=O)c2cccnc2N)cc1 [Compound 13.63, 2-Amino-N-(4-tert-butyl-benzyl)-N-[2-(3-trifluoromethyl-phenyl)-ethyl]-nicotinamide] | 30
2 | CCC(=O)Nc1ccc(Cl)c(Cl)c1C(=O)N(CCc1cccc(C(F)(F)F)c1)Cc1ccc(C(C)(C)C)cc1 [Compound 13.230, N-(4-tert-Butyl-benzyl)-2,3-dichloro-6-propionylamino-N-[2-(3-trifluoromethyl-phenyl)-ethyl]-benzamide] | 5.61
3 | CNc1c(Cl)ccc(F)c1C(=O)N(CCc1cccc(C(F)(F)F)c1)Cc1ccc(C(C)(C)C)cc1 [Compound 13.254, N-(4-tert-Butyl-benzyl)-3-chloro-6-fluoro-2-methylamino-N-[2-(3-trifluoromethyl-phenyl)-ethyl]-benzamide] | 0.295

Reference: US7678818B2, “Anthranilamide and 2-amino-heteroarene-carboxamide compounds” (Hoffmann-La Roche Inc., priority 2006, dated 2010)
